IC50, Papp and permeability data for nine compounds are collected here from ChEMBL document CHEMBL1221304, “Proline isosteres in a series of 2,4-disubstituted pyrrolo[1,2-f][1,2,4]triazine inhibitors of IGF-1R kinase and IR kinase” (Bioorg Med Chem Lett, 2010).

Molecules are shown by their SMILES.

Data set [1] has as its target T1, Insulin-like growth factor 1 receptor (Homo sapiens, UniProt P08069). In words: Inhibition of IGF1R.
A short description of data set [2]: Permeability by PAMPA assay. Type of data set: ADME. Conditions: for Papp: read-out: permeability.
Data set [3] has as its target T1, Insulin-like growth factor 1 receptor. In words: Inhibition of IGF1R in IGF1R-SAL cells. Format: cell-based.

T1 sequence (P08069 31-736 limits assumed): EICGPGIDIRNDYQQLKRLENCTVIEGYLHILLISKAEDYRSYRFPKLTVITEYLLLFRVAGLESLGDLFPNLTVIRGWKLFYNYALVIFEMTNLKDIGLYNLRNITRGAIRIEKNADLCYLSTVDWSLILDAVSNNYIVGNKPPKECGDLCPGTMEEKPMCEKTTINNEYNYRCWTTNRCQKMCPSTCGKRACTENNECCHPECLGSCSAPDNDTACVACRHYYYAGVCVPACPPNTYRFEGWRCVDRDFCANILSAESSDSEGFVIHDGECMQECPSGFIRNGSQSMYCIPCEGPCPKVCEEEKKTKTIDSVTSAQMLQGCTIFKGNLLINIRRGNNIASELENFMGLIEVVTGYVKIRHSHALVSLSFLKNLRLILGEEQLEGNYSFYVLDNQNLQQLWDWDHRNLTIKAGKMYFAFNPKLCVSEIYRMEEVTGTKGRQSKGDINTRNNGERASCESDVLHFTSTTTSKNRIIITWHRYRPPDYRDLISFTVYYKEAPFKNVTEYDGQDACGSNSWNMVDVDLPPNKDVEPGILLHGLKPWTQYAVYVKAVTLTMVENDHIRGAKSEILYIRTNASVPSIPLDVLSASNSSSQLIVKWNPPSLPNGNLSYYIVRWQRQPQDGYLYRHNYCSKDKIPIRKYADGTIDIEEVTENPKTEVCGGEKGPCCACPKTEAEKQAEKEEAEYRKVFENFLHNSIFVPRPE
T1 sequence (P08069 741-1367 limits assumed): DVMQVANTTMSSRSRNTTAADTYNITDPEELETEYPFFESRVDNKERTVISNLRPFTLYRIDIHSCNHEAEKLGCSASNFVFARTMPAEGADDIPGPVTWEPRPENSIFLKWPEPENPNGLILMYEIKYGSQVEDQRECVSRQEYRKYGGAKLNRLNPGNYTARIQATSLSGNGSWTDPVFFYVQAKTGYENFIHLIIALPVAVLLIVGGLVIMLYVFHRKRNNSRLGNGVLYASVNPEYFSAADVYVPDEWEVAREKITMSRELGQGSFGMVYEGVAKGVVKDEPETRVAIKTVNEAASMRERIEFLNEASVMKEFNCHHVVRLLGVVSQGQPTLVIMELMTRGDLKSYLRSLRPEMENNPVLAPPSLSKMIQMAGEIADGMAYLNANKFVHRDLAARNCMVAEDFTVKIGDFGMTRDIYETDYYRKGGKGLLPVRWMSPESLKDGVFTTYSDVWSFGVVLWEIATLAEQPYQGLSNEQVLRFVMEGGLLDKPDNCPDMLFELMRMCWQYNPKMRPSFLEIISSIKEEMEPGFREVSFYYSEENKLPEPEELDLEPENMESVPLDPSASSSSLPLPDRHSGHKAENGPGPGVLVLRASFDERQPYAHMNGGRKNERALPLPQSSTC

For `O=C(Nc1ccc(F)nc1)[C@@H]1CCCN1c1nc(Nc2cc(C3CC3)[nH]n2)c2cccn2n1`, the 50% inhibitory concentration (IC50) came to 2.7 nM in data set [1] and 1 nM in data set [3]. For the same compound, the Papp in data set [2] was 77 ×10⁻⁶ cm/s.

In the case of `O=C(c1ccc(F)nc1)N1CCC[C@H]1c1nc(Nc2cc(C3CC3)[nH]n2)c2cccn2n1`, in data set [2], the Papp stood at 72.1 ×10⁻⁶ cm/s. Moreover, it took 162 nM to reach half-maximal inhibition in data set [3] (IC50).

As for `O=C(c1ccc(F)nc1)N1CCC[C@@H]1c1nc(Nc2cc(C3CC3)[nH]n2)c2cccn2n1`, the IC50 in data set [1] stood at 8400 nM. The Papp in data set [2] is 93.5 ×10⁻⁶ cm/s.

Consider `O=C1CC[C@@H](c2nc(Nc3cc(C4CC4)[nH]n3)c3cccn3n2)N1C(=O)c1ccc(F)nc1`, for which the half-maximal inhibitory concentration (IC50) in data set [1] was 11 nM; in data set [3] it was 508 nM. Further, in data set [2], the Papp was 60 ×10⁻⁶ cm/s.

Consider `O=C(Nc1ccc(F)nc1)C1=C(c2nc(Nc3cc(C4CC4)[nH]n3)c3cccn3n2)CCC1`, for which the IC50 in data set [1] came to 32 nM; in data set [3], 237 nM. In addition, the Papp in data set [2] came out at 82.2 ×10⁻⁶ cm/s.

Consider `O=C(NCc1nc(Nc2cc(C3CC3)n[nH]2)c2cccn2n1)c1ccc(F)nc1`, for which the Papp in data set [2] worked out at 52.5 ×10⁻⁶ cm/s. The same compound gave a half-maximal inhibitory concentration (IC50) in data set [3] of 40 nM.

With `O=C(Nc1ccc(F)nc1)[C@@H]1CCC[C@H]1c1nc(Nc2cc(C3CC3)n[nH]2)c2cccn2n1` (stereo in doubt; (+)-25), the 50% inhibitory concentration (IC50) in data set [1] was 9.7 nM; in data set [3], 206 nM. Also, in data set [2], the Papp is 50.9 ×10⁻⁶ cm/s.

Consider `O=C(Nc1ccc(F)nc1)[C@@H]1CCC[C@H]1c1nc(Nc2cc(C3CC3)n[nH]2)c2cccn2n1` (stereo in doubt; (-)-25), for which the half-inhibitory concentration (IC50) is 190 nM in data set [1] and 389 nM in data set [3]. The compound also yielded a permeability in data set [2] of 85.4 ×10⁻⁶ cm/s.

As to `C[C@@]1(C(=O)Nc2ccc(F)nc2)CCCN1c1nc(Nc2cc(C3CC3)n[nH]2)c2cccn2n1` [BMS-754807], the Papp in data set [2] was found to be 63.4 ×10⁻⁶ cm/s.

For orientation: IC50 means the concentration that inhibits the measured activity by half. The low end stands for higher potency, the high end for lower potency.
